PMC8123576 (International Journal of Molecular Sciences, 2021)
Like-named read-outs stand apart in the source and are kept apart here.

Assays:
[1] = Cytotoxicity assay (CellTiter 96 AQueous One) on HFL1; assay type: cell-based, human; conditions: human, HFL1 normal lung cells, HFL1, 24 h, dose 0 = 100.00, read-out: Growth inhibition data
Procedure: (§1) The best antifungal and/or antiaflatoxigenic compounds were tested to determine their cytotoxic activity against human normal cell lines deriving from lung (HFL1, ATCC and CCL-153), skin (Hs27, ATCC, CRL1634) and colon (Crl1790, ATCC, CCD 841 CoN) and a cell line deriving from a hematological tumor (U937, ATCC and CRL-3253). These different cell lines have been chosen to simulate the different human exposition routes to pesticide. Cell culture conditions have been previously reported. Compound cytotoxicity was determined using CellTiter 96® AQueous One Solution Cell Proliferation Assay (Promega Corporation, Madison, WI, USA). The very detailed protocol was described by Bartoli et al.. In brief, cells were seeded in a 96-well plate at a density of 5000 cells/well and after 24 h cells were treated with different concentrations of the compounds (0.5–1–5–10–50–100 µM). After the treatment period (24 h), the CellTiter Reagent was added to each well (20 µL/well) and the plate incubated for 4 h at 37 °C. The plate was then read at 485 nm in a multiwell plate reader (TECAN SpectraFluor Plus, Männedorf, Switzerland).

HFL1 cells = experiment: as above; assay type: cell-based, human; conditions: HFL1 cells, 24 h treatment
Procedure: as §1

S. typhimurium TA98 = conditions: for TA98 + S9 revertants/plate: NC 26.5 ± 5.4; for TA98 revertants/plate: NC 15.7 ± 4.9
[2] = Cytotoxicity assay (CellTiter 96 AQueous One) on U937; assay type: cell-based, human; conditions: human, U937 cells (hematological tumor line), U937, 24 h, dose 0 = 100.00, read-out: Growth inhibition data
Procedure: as §1

U937 cells [3] = experiment: as above; assay type: cell-based, human; conditions: U937 cells, 24 h treatment
Procedure: as §1

A. cepa = A. cepa toxicity test (root length); assay type: in vivo, Allium cepa; conditions: for Roots Length: NC 2.07 ± 0.61
Procedure: A. cepa toxicity test: Twelve equal-sized young onion bulbs were exposed for 96 h in the dark to different concentrations of compounds dissolved in DMSO, changing the sample solution every day. […] Root macroscopic parameters such as turgescence, consistency, change in color and root tip shape, were used as toxicity indexes.

[4] = tested on: S. typhimurium TA98 and TA100 strains; experiment: Ames test, overall mutagenicity verdict in bacteria; conditions: TA98 and TA100, -S9 and +S9
[5] = tested on: aflatoxin accumulation by A. flavus; experiment: microbe, parasite or virus in culture; assay type: cell-based, Aspergillus flavus; conditions: Aspergillus flavus
[6] = Cytotoxicity assay (CellTiter 96 AQueous One) on Crl1790; assay type: cell-based, human; conditions: human, Crl1790 (CCD 841 CoN) normal colon cells, Crl1790, 24 h, dose 0 = 100.00, read-out: Growth inhibition data
Procedure: as §1

Crl1790 cells = experiment: as above; assay type: cell-based, human; conditions: Crl1790 cells, 24 h, only at the highest concentration (100 µM)
Procedure: as §1

U937 cells [7] = experiment: Alkaline Comet Assay; assay type: cell-based, human; conditions: 24 h treatment, 25-100 µM
Procedure: Our standard protocol for the Alkaline Comet Assay (pH > 13) was previously described in great detail. The DNA-damaging effects of non-cytotoxic molecules were evaluated on U937 cells using 25 μM as the lowest concentration and 100 µM as the highest for 24 h treatment. After exposure, cell viability was checked using the trypan blue exclusion method: a viability of at least 70% compared to the negative control (DMSO) was used as a cut-off for further evaluating the level of DNA damage. After electrophoresis (DNA unwinding: 20 min; electrophoresis: 20 min, 0.78 V cm^−1, 300 mA), nucleoids stained with ethidium bromide (75 µL, 10 µg/mL) were examined with a Leica DMLS fluorescence microscope (excitation filter BP 515–560 nm, barrier filter LP 580 nm), using the software Comet Assay IV (Perceptive Instruments Ltd., Suffolk, UK). Alkaline Comet assay results are expressed as tail intensity percentage that measures the percentage of total cellular DNA found in the tail of each comet.

A. cepa root cells = conditions: for MN (micronuclei frequency): NC 1.10 ± 1.28; for CA (aberrated cells / total cells in mitosis): NC 1.2
Procedure: To detect micronuclei and chromosomal aberrations six equal-sized pre-germinated young bulbs per sample were exposed for 24 h to sample dilutions. The bulbs dedicated to the micronuclei test underwent an additional treatment in the saline solution for 44 h of recovery time to cover two rounds of mitosis so that damage induced in chromosomes during mitosis to be visible as micronuclei in interphase cells. Then all the roots were fixed in acetic acid and ethanol (1:3) for 24 h and lastly stored in 70% ethanol. The negative control was DMSO in Rank’s solution (the dose of DMSO corresponding to volume of samples) and positive control was maleic hydrazide (10^−2 M, 6 h exposure). […] All experiments were performed in duplicate.

[8] = read-out: A.I. (%) (aflatoxin accumulation inhibition)

Molecule `CC(=NNC(N)=S)c1cccs1` [2-actpTS, 2-acetylthiophenethiosemicarbazone] has a viability at 24 h, 0.5 µM ([1]; 0.5 µM) of 100 ± 11.1%, a viability at 24 h, 1 µM ([1]; 1 µM) of 100 ± 6.11% and a viability at 24 h, 5 µM ([1]; 5 µM) of 100 ± 5.74%. For the same molecule, the viability at 24 h, 10 µM ([1]; 10 µM) was 100 ± 6.76%, the viability at 24 h, 50 µM ([1]; 50 µM) was 100 ± 4.53% and the viability at 24 h, 100 µM ([1]; 100 µM) was 92.5 ± 3.49%. The “50% inhibition of cell proliferation” value (HFL1 cells) was “did not induce 50% inhibition of cell proliferation”, the “TA98 + S9 MR (mutagenicity ratio)” value (S. typhimurium TA98; +S9, 0.1 µM/plate) was 0.9 and the “TA98 + S9 revertants/plate” value (S. typhimurium TA98; +S9, 0.1 µM/plate) was 25.0 ± 0.0 revertants/plate. The “TA98 + S9 MR (mutagenicity ratio)” value (S. typhimurium TA98; +S9, 1.0 µM/plate) was 1.4, the “TA98 + S9 revertants/plate” value (S. typhimurium TA98; +S9, 1.0 µM/plate) was 37.0 ± 4.2 revertants/plate and the “TA98 + S9 MR (mutagenicity ratio)” value (S. typhimurium TA98; +S9, 10.0 µM/plate) was 1.3. For the same molecule, the “TA98 + S9 revertants/plate” value (S. typhimurium TA98; +S9, 10.0 µM/plate) was 34.0 ± 2.8 revertants/plate, the “TA98 + S9 MR (mutagenicity ratio)” value (S. typhimurium TA98; +S9, 50.0 µM/plate) was 1.2 and the “TA98 + S9 revertants/plate” value (S. typhimurium TA98; +S9, 50.0 µM/plate) was 31.5 ± 6.4 revertants/plate. The “TA98 + S9 MR (mutagenicity ratio)” value (S. typhimurium TA98; +S9, 100.0 µM/plate) was 1.2, the “TA98 + S9 revertants/plate” value (S. typhimurium TA98; +S9, 100.0 µM/plate) was 32.0 ± 2.8 revertants/plate and the “TA98 MR (mutagenicity ratio)” value (S. typhimurium TA98; -S9, 0.1 µM/plate) was 1.9. For the same molecule, the TA98 revertants/plate (S. typhimurium TA98; -S9, 0.1 µM/plate) was 29.5 ± 3.5 revertants/plate, the “TA98 MR (mutagenicity ratio)” value (S. typhimurium TA98; -S9, 1.0 µM/plate) was 1.5 and the TA98 revertants/plate (S. typhimurium TA98; -S9, 1.0 µM/plate) was 23.5 ± 6.4 revertants/plate. For the same molecule, the “TA98 MR (mutagenicity ratio)” value (S. typhimurium TA98; -S9, 10.0 µM/plate) was 1.0, the TA98 revertants/plate (S. typhimurium TA98; -S9, 10.0 µM/plate) was 16.0 ± 1.4 revertants/plate and the “TA98 MR (mutagenicity ratio)” value (S. typhimurium TA98; -S9, 50.0 µM/plate) was 1.4. For the same molecule, the TA98 revertants/plate (S. typhimurium TA98; -S9, 50.0 µM/plate) was 22.5 ± 3.5 revertants/plate, the “TA98 MR (mutagenicity ratio)” value (S. typhimurium TA98; -S9, 100.0 µM/plate) was 1.3 and the TA98 revertants/plate (S. typhimurium TA98; -S9, 100.0 µM/plate) was 21.0 ± 0.0 revertants/plate. For the same molecule, the viability at 24 h, 0.5 µM ([2]; 0.5 µM) was 100 ± 9.43%, the viability at 24 h, 1 µM ([2]; 1 µM) was 100 ± 4.23% and the viability at 24 h, 5 µM ([2]; 5 µM) was 100 ± 6.71%. The viability at 24 h, 10 µM ([2]; 10 µM) was 100 ± 7.06%, the viability at 24 h, 50 µM ([2]; 50 µM) was 100 ± 3.6% and the viability at 24 h, 100 µM ([2]; 100 µM) was 94.7 ± 8.15%. For the same molecule, the “50% inhibition of cell proliferation” value (U937 cells [3]) was “did not induce 50% inhibition of cell proliferation”, the “Roots Length” value (A. cepa; 10 µM) was 2.17 ± 0.53 cm and the “Roots Length” value (A. cepa; 25 µM) was 1.65 ± 0.43 cm. The “Roots Length” value (A. cepa; 50 µM) was 1.68 ± 0.39 cm, the “Roots Length” value (A. cepa; 100 µM) was 1.07 ± 0.23 cm and the EC50 (A. cepa; Allium cepa, read-out: EC50 (50% A. cepa root growth inhibition), 96 h exposure) was about 100 µM. For the same molecule, the “mutagenicity in bacteria” value [4] was “no mutagenicity at any of the concentrations tested”, the inhibition at 50 µM [5, 8] was 58.3% and the inhibition at 100 µM [5, 8] was 88.4%. For the same molecule, the inhibition at 10 µM ([5]; read-out: percentage of aflatoxin accumulation inhibition) was 23%, the viability at 24 h, 0.5 µM ([6]; 0.5 µM) was 100 ± 3.63% and the viability at 24 h, 1 µM ([6]; 1 µM) was 95.1 ± 7.76%. For the same molecule, the viability at 24 h, 5 µM ([6]; 5 µM) was 88.4 ± 2.25%, the viability at 24 h, 10 µM ([6]; 10 µM) was 89.1 ± 5.24% and the viability at 24 h, 50 µM ([6]; 50 µM) was 81.8 ± 3.48%. The viability at 24 h, 100 µM ([6]; 100 µM) was 62 ± 4.6%, the “cytotoxic activity” value (Crl1790 cells) was “mild cytotoxic activity” and the “DNA damage in Alkaline Comet Assay” value (U937 cells [7]) was “did not induce significant DNA damage”. For the same molecule, the “MN (micronuclei frequency)” value (A. cepa root cells; 10 µM) was 1.20 ± 0.83%, the “CA (aberrated cells / total cells in mitosis)” value (A. cepa root cells; 10 µM) was 2.7% and the “MN (micronuclei frequency)” value (A. cepa root cells; 25 µM) was 1.40 ± 1.14%. For the same molecule, the “CA (aberrated cells / total cells in mitosis)” value (A. cepa root cells; 25 µM) was 4.7%, the “MN (micronuclei frequency)” value (A. cepa root cells; 50 µM) was 2.00 ± 1.58% and the “CA (aberrated cells / total cells in mitosis)” value (A. cepa root cells; 50 µM) was 6.3%. For the same molecule, the “toxicity to roots in the micronuclei test” value (A. cepa root cells; 100 µM dose) was “highly toxic” and the “CA (aberrated cells / total cells in mitosis)” value (A. cepa root cells; 100 µM) was 6.0%.
